What was measured:
[1] = test system: MDA-MB-231; assay: expression of LXR target genes in breast cancer cells; format: cell-based; conditions: MDA-MB-231, triple-negative
Source text: (§1) The inhibitory effects of LXR ligands in breast cancer cells have been shown previously. […] The observed decreases in LXR protein levels were not affected by proteasome inhibitor MG132.

[2] = test system: MCF-7; assay: as above; format: cell-based; conditions: MCF-7, ER-positive
Source text: as §1

[3] = test system: LXR-LBD; assay: differential scanning fluorimetry; format: binding
Source text: (§2) The synthesis and characterization of KD-01-39, a derivative of 3A4, have not been described previously.

[4] = test system: PDAC cells; assay: pro-apoptotic caspase cleavage analysis; format: cell-based, human
Experimental: (§3) To determine if 1E5 and 3A4 can induce apoptosis, PDAC cells were treated with the LXR ligands and subjected to pro-apoptotic caspase cleavage analysis. […] Metabolomic profiling following treatments with the two ligands indicated the activation of two distinct cell death mechanisms. Ferroptosis is a non-apoptotic form of cell death which is characterized by accumulation of lipid peroxides by loss of glutathione peroxidase 4 (GPX4) activity. It can also be induced by accumulation of intracellular iron and depletion of reduced glutathione (GSH). GPX4 is an anti-oxidant enzyme involved in conversion of PUFA peroxides to PUFA alcohols. GSH is a critical cofactor of GPX4 and acts as a reducing agent to reduce the lipid peroxides. Therefore, direct inhibition of GPX4 activity or reduction in GSH levels trigger ferroptosis. The second mechanism of inducing ferroptosis is accumulation of polyunsaturated fatty acids (PUFAs) in cells. Studies have shown that PUFAs are the most susceptible lipids to peroxidation.
Accumulation of C18 ceramides in the mitochondria leads to the recruitment of auto phagosomes in mitochondria and induces LC3-ceramide dependent lethal mitophagy. […] Darkened circles indicate increases and the size of the circle corresponds to the significance of changes.

[5] = test system: pancreatic cancer cells; assay: metabolomic analysis using mass spectroscopy in pancreatic cancer cells; format: cell-based, human; conditions: PDAC cells
Experimental: To further characterize the mechanisms of action of novel LXR modulators 1E5 and 3A4, metabolomic and transcriptomic analysis of pancreatic cancer cells were conducted in response to treatment. […] PDAC tumors have altered metabolism to support its growth and survival. Previous studies have reported that Kras upregulates the non-canonical use of glutamine to maintain NADPH/NADP+ ratio which in turn regulates redox homeostasis. This unconventional use of glutamine by PDAC cells fuel cancer cell proliferation and survival. Glutamine metabolism in PDAC has two unique functions: 1. Glutamine-derived Glutamate is used for glutathione (GSH) biosynthesis. 2. Glutamine facilitates generation of reducing equivalents in the form of NADPH. In PDAC mitochondria, glutamine is converted to glutamate by glutaminase enzyme (GLS1). This glutamine derived glutamate is conventionally converted to alpha-ketoglutarate by glutamate dehydrogenase (GLUD1) to fuel citric acid cycle. However, in PDAC cells glutamate is converted to aspartate in cytosol which is converted to malic acid and NADPH is produced during this process. This process is essential to maintain redox homeostasis in the tumor. However, this non-canonical use of glutamine is dispensable in non-malignant cells. Therefore, targeting GLS1 to decrease the bioavailability of glutamate to act as source of nitrogen and carbon for the synthesis of amino acids and nucleic acids is a viable strategy to target PDAC tumors. […] The effect of 1E5 is similar to BPTES, a potent GLS1 inhibitor.
TCA cycle intermediates act as anaplerotic substrate for gluconeogenesis and lipogenesis. […] GOT2 converts glutamine-derived glutamate to alpha-KG. During this process oxaloacetate is converted to aspartate which is required to maintain redox homeostasis. Studies have shown that inhibition of GOT2 in PDAC promotes senescence.
as §3
Expression profiles of ferroptosis genes in RNAseq data following 1E5 treatment were also consistent with its pro-ferroptotic actions. […] Polyamines are amino-acid derived polycationic alkylamines that are required for the growth of cells. SAT1 catalyzes the acetylation of spermidine and spermine to form N-acetylspermidine and N-acetylspermine respectively. […] SAT1 induces ferroptosis by upregulating the peroxidation of PUFA arachidonic acid. Ceramides are sphingolipids consisting of sphingosine and fatty acid acyl chain. Cellular stress leads to upregulation of ceramide synthesis which mediate caspase-dependent apoptosis. Accumulation of ceramides/hexosylceramides in the mitochondria leads to the formation of channel like structures in the mitochondrial outer membrane which increases the permeability of pro-apoptotic proteins such as cytochrome c. ER stress is also known to activate de-novo synthesis of ceramides and induce apoptosis by increasing the flow of Ca ions and upregulating the unfolded protein stress response. […]

[6] = test system: LXR in MDA-MB-231 cells; assay: western blot of LXR protein levels; format: cell-based
Source text: as §1

[7] = test system: LXR proteins in MCF-7 cells; assay: western blot of LXR protein levels; format: cell-based
Source text: as §1

[8] = test system: MCF-7 cells; assay: breast cancer cell proliferation; format: cell-based
Source text: as §1

[9] = test system: MDA-MB-231 cells; assay: breast cancer cell proliferation; format: cell-based
Source text: as §1

[10] = test system: KPC tumor cells; assay: growth of KPC tumor cells from mouse model of PDAC; format: cell-based
Source text: The effects of the ligands and derivatives on the growth of PDAC cells were further validated by cell counting and clonogenic assays.

[11] = test system: LXR target genes SREBF1c, ABCA1, and ABCG1; assay: expression of LXR target genes in pancreatic cancer cell lines; format: cell-based, human
Source text: To characterize the activity of the newly discovered ligands, the expression of LXR target genes SREBF1c, ABCA1, and ABCG1 was examined following treatment with vehicle, synthetic agonist GW3965, and Compounds 1E5 and 3A4. […] Basal expression of SREBF1c, the canonical LXR target gene involved in the regulation of glucose and lipid metabolism, was disrupted by the addition of novel LXR ligands, whereas their expression was induced following treatment with synthetic agonist GW3965 in all three pancreatic cancer cell lines tested, whereas the effects on ABCA1 and ABCG1 varied between the two novel ligands and across the cell lines.
(§4) To elucidate mechanisms of inverse agonism by the novel ligands, TR-FRET experiments were conducted to determine the effects of 1E5 and 3A4 on the recruitment of NR co-activators and co-repressors. […] In addition to their functions as inverse agonists, extended treatments with 1E5 and 3A4 also destabilized or decreased LXR proteins.

[12] = test system: LXR ligand-binding domain; assay: TR-FRET assay of co-activator and co-repressor peptide recruitment; format: biochemical
Experimental: as §4, §2

[13] = test system: PDAC cell lines; assay: tetrazolium salt reduction (WST) assay in PDAC cell lines; format: cell-based, human; conditions: WST screen, three human pancreatic cancer cell lines
Experimental: To determine the effects of LXR ligands on PDAC cell proliferation, cells were treated with synthetic LXR agonist GW3965 and live cells were quantified using trypan blue exclusion assays. […] FIGS. 8A, 8B, and 8C show dose-dependent decreases in cell proliferation in BxPC-3, Mia-PaCa-2, and PANC-1, respectively upon treatment with increasing GW3965 concentrations. […] Clonogenic assays were also employed to evaluate the effects of long-term LXR ligand treatment on cell proliferation and colony formation. […] These findings indicate that LXRs are involved in PDAC cell proliferation and targeting LXRs with ligands perturb their normal functions in cell proliferation.
(§5) The initial identification and subsequent characterization of the two novel LXR ligands and their derivative compounds was carried out in screens in three human pancreatic cancer cell and one non-transformed human pancreatic epithelial cell line in three or more replicate experiments for each cell line using the WST tetrazolium salt reduction assays.

[14] = test system: human PDAC cell lines; assay: cell viability response curves with increasing concentrations; format: cell-based
[15] = target: T1, LXR proteins (Homo sapiens, UniProt P55055); assay: LXR protein levels after long-term treatment of pancreatic cancer cells; format: cell-based; conditions: long-term treatments
T1 construct: expression of LXR proteins in different pancreatic cancer cell lines following long-term treatments; endogenous in cells; host or cells: pancreatic cancer cell lines (BxPC-3, MIA PaCa-2, PANC-1 named elsewhere)
T1 sequence (P55055 whole entry): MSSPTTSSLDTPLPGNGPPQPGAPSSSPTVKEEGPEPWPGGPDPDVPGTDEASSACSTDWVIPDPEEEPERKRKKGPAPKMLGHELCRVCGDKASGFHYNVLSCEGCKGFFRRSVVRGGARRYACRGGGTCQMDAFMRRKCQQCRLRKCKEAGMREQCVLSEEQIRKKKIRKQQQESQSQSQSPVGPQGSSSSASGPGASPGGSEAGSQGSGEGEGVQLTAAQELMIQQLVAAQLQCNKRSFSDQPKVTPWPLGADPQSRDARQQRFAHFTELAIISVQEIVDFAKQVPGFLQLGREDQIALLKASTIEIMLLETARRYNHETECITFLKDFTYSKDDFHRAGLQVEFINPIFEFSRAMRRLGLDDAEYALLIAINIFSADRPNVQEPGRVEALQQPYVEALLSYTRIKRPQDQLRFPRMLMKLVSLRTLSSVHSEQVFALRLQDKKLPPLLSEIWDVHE
Experimental: as §4

[16] = test system: HPNE cells; assay: growth of non-transformed pancreatic epithelial cells (WST screen; FIG. 32D); format: cell-based, human; conditions: WST screen
Experimental: as §5, §2

## COc1cc(OC)cc(C(=O)N2CCN(c3ccccc3C)CC2)c1 [Compound 3A4, 1-(3,5-dimethoxybenzoyl)-4-(2-methylphenyl)piperazine]
[1]
  expression of LXR target genes: generally down-regulated
[2]
  expression of LXR target genes: generally down-regulated
[3]
  LXR-LBD structure and dye dissociation with increasing temperature: disrupted the LBD structure
[4]
  pro-apoptotic caspase cleavage: induced pro-apoptotic caspase cleavage
[4]; PDAC cells
  apoptosis: induces caspase-dependent apoptosis
[5]
  levels of C18 and C16 ceramides and hexosylceramides: significantly upregulates
[6]
  LXR protein levels (degradation): only 1E5 degraded LXR
[7]
  LXR protein levels (degradation): act as degraders of LXR proteins
[8]
  proliferation of MCF-7 cells: inhibited the proliferation
[9]
  proliferation of MDA-MB-231 cells: inhibited
[10]
  growth of KPC tumor cells: blocked the growth
[11]; all three pancreatic cancer cell lines
  basal expression of SREBF1c: disrupted
[11]; pancreatic cancer cells
  expression of FASN, SCD, and ACC: decreased the expression
[11]; three pancreatic cancer cell lines
  expression of LXR target genes: reducing the expression of LXR target genes
[12]; co-activator (D22) peptide
  co-activator peptide binding to LXR ligand-binding domain: did not affect co-activator peptide binding
[12]; co-repressor (NCOR and SMRT-ID2) peptides
  binding of NCOR and SMRT co-repressor peptides: increased the binding
[13]
  human pancreatic cancer cells growth: effective in inhibiting human pancreatic cancer cells growth
[14]
  potency in response curves compared to GW3965: more potent activity as compared to GW3965
[15]
  LXR protein levels: decreased LXR protein levels
[16]
  activity against non-transformed HPNE cells: little activity

Reference: patent US20220273658A1, “SMALL MOLECULE LIVER X RECEPTOR MODULATORS AND USES THEREOF” (University of Houston System, priority 2019, published 2022)
